Results on 4 molecules are retold here after patent publication US11878980B2, “Solid forms of TTK inhibitor” (UNIVERSITY HEALTH NETWORK, priority 2016, dated 2024).

Where a name gives a salt, the structure may show the parent alone.

Series [1] can be described thus: Solubility (Solubilitymax, pHmax) of crystalline forms. Format: physicochemical.
The nature of series [2]: Hygroscopicity (water sorption at 90% RH). In kind it is physicochemical.
Series [3] in a line: Pharmacokinetic analysis after single oral powder-in-capsule dose, rat plasma by LC/MS. In kind it is in vivo, Sprague-Dawley rats. The settings on record: for AUC0-last / Cmax: Rat, PO, 5 mg/kg; for plasma concentrations relative to free base compound (I) (in words): Sprague Dawley rats, oral. On the procedure: (§1) A single oral, powder-in-capsule dose of each form was administered to three (n=3) female Sprague-Dawley rats and three male beagle dogs (n=3) at 5 mg active pharmaceutical ingredient per kg body weight. The plasma was then analyzed for compound plasma levels by LC/MS.
(§2) Compound was milled using a mortar and pestle and was carefully dispensed into a gelatin capsule, tared on an analytical balance. Loading continued until the desired compound mass was achieved. Size 9 capsules were used for rat dosing and size 3 capsules were used for dogs. Note: compound load was corrected for the bioequivalence ratio of each form.
(§3) Following oral dosing, blood was drawn from the lateral saphenous vein into lithium heparin coated tubes (rats) or K2EDTA coated tubes (dogs), at designated time points. Plasma was collected and stored frozen at −80° C. until analysis.
Plasma samples (20 μL) and spiked plasma standard samples were diluted five-fold with ice cold acetonitrile containing 100 ng/mL verapamil as internal standard. Samples and standards were filtered through 0.22 μm membranes in a 96-well format. Filtrates were then diluted with water to 30% acetonitrile.
10 μL of each sample and standard was injected onto a Waters Acquity CSH 1.7 μm 2.1×100 mm column at 0.6 mL/min by an Acquity UPLC. The C18 column was equilibrated at 5% acetonitrile in water. Compounds were eluted with a gradient to 99% acetonitrile. All mobile phases contained 0.1% (v/v) formic acid.
Column eluent was analyzed by an electrospray ionization tandem quadrupole mass spectrometry system (ESI-MS/MS, a Waters Xevo TQ). Eluent composition was analyzed for three ion-pairs specific for the internal standard and three ion-pairs specific for the analyte. Experimental samples were compared with standard curve samples to determine compound concentrations. Pharmacokinetic parameters were determined using the Excel plug-in “PKfit”.

Series [4] is described as follows: Pharmacokinetic analysis after single oral powder-in-capsule dose, dog plasma by LC/MS. Format: in vivo, beagle dogs. The following applies: for AUC0-last / Cmax: Dog, PO, 5 mg/kg; for plasma concentrations relative to free base compound (I) (in words): beagle dogs, oral. The protocol: as §1, §2, §3
Plasma samples (20 μL) and spiked plasma standard samples were diluted eleven fold with ice cold acetonitrile containing 40 ng/mL Diclofenac as internal standard. The mixture was vortexed for 2 min and centrifuged. The 0.5 μL supernatant was injected into a Waters Acquity BEH 1.7 μm 2.1×50 mm column at 0.6 mL/min by an Acquity UPLC. The column was equilibrated with 10% methanol in water. Compounds were eluted with a gradient to 95% methanol. Mobile phases contained 0.025% (v/v) formic acid and 1 mM NH4OAc.
Column eluent was analyzed by an electrospray ionization tandem quadrupole mass spectrometry system (ESI-MS/MS, an API-6500). Eluent composition was analyzed for one ion-pairs specific for the internal standard and one ion-pairs specific for the analyte. Experimental samples were compared with standard curve samples to determine compound concentrations. Pharmacokinetic parameters were determined using WinNonlin Professional 6.2.

A word on the Cmax: it is the highest concentration seen after dosing. `Cc1cc(-c2cnn3c(NC[C@H]4C[C@@](C)(O)C4)cc(Oc4cccnc4)nc23)ccc1C(=O)NC1CC1` [Compound (I) bisphosphate hemihydrate]: in series [1], the Solubilitymax is 100 µg/mL and the pHmax is recorded as <1.14. In series [2], the “Hygroscopicity (water sorption at 90% RH)” value is 3.9%. For the same molecule, in series [3], the AUC0-last came to 2100 ng·h/mL, the Cmax came to 1120 ng/mL and the “plasma concentrations relative to free base compound (I) (in words)” value is listed as “increased plasma concentrations”. Besides, in series [4], the AUC0-last came out at 4000 ng·h/mL, the Cmax is listed as 830 ng/mL and the “plasma concentrations relative to free base compound (I) (in words)” value is “increased plasma concentrations”.

In the case of `Cc1cc(-c2cnn3c(NC[C@H]4C[C@@](C)(O)C4)cc(Oc4cccnc4)nc23)ccc1C(=O)NC1CC1` [Compound (I) hydrobromide], in series [1], the Solubilitymax worked out at 630 µg/mL and the pHmax came out at 0.79. For the same molecule, the “Hygroscopicity (water sorption at 90% RH)” value in series [2] is on record as 2.3%. In addition, in series [3], the AUC0-last worked out at 1640 ng·h/mL, the Cmax came to 260 ng/mL and the “plasma concentrations relative to free base compound (I) (in words)” value was “increased plasma concentrations”. In series [4], the AUC0-last turned out to be 2760 ng·h/mL, the Cmax came to 570 ng/mL and the “plasma concentrations relative to free base compound (I) (in words)” value is given as “increased plasma concentrations”.

`Cc1cc(-c2cnn3c(NC[C@H]4C[C@@](C)(O)C4)cc(Oc4cccnc4)nc23)ccc1C(=O)NC1CC1` [Compound (I), N-cyclopropyl-4-(7-((((1s,3s)-3-hydroxy-3-methylcyclobutyl)methyl)amino)-5-(pyridin-3-yloxy)pyrazolo[1,5-a]pyrimidin-3-yl)-2-methylbenzamide]: in series [1], the Solubilitymax is <1 µg/mL. The “Hygroscopicity (water sorption at 90% RH)” value in series [2] was 0.8%. In series [3], this molecule returned an AUC0-last of 140 ng·h/mL and a Cmax of 11 ng/mL. In series [4], this molecule had an AUC0-last of 40 ng·h/mL and a Cmax of 8 ng/mL.

As for `Cc1cc(-c2cnn3c(NC[C@H]4C[C@@](C)(O)C4)cc(Oc4cccnc4)nc23)ccc1C(=O)NC1CC1` [Compound I-monohydrate], the Solubilitymax in series [1] was <1 µg/mL.
